# Non-standard residues stand in square brackets, D forms with d. Residues, ends and D or L forms follow the SMILES beside them.
# Tests used:
# [1] = system: bEnd.3 monolayers
# Description: The bEnd.3 cells, at a concentration of 5 × 10^4 cells per well, were seeded on 12-well Transwell plates with polyester filters with 0.4 µm membrane pores and incubated 10 days at 37 ℃ in a 5% CO2 atmosphere. One and a half milliliters of full medium was added to the basal chamber, while a volume of 0.5 mL, including the cells, was added to the apical chamber. The medium was changed every 2 days. After 6 days culture, the medium of the basolateral chamber was replaced by serum-free medium and the cells were cultured for 4 more days before the permeation experiment. To evaluate the confluence of the cell monolayer, and during the permeation studies, we measured the TEER at time 0 and at each hour for 3 h, and then at 24 h, as previously described. […] At 1 h intervals up to 3 h, the runs were interrupted and 500 µL was collected from the apical chamber and 1.5 mL from the basolateral chamber. Permeation of DAL and FITC-labeled vehicle into the basolateral chamber as well as DAL and FITC-labeled vehicle concentrations in the apical chamber were measured as described above.
# [2] = Cytotoxicity by WST-1 assay, Caco-2; type: cell-based; details: human, WST-1, DAL 17–150 µg/mL, HBSS pH 6.8, three independent experiments, read-out: cell vitality, Caco-2, over the whole concentration range
# Description: To study the cytotoxicity of the DAL/N^+-Ch-CD complex, we mixed 400 µL of polymer solution (3.175 mg/mL) and 380 µL of 1 mg/mL aqueous DAL, and the mix was lyophilized under the conditions described above. The DAL-NP were lyophilized and the lyophilized product was re-suspended in 250 µL of 0.22 µm filtered water. An aliquot of dispersion (200 µL) was withdrawn and added to 20 µL of Hank’s buffer solution 10× (HBSS 37 ℃, pH 6.8), and the mix was made to 2 mL with HBSS 1X as to have a DAL content of […]. The Caco-2 cells were subjected to DAL concentrations in the 17–150 µg/mL range, while the bEnd.3 cells were brought into contact with DAL concentrations in the 17–100 µg/mL range; more specifically, DAL was free in solution, contained in the DAL/N^+-rCh-CD (1:1) complex, or encapsulated in NP. The cytotoxicity of the compounds under study was evaluated by the WST-1 assay. Caco-2 and bEnd.3 cells were seeded in each well of 96-well plates at a seeding density of 2 × 10^4 cells per well, and left to proliferate for 24 h at 37 ℃ in 5% CO2. The culture medium was then removed and replaced with samples of DAL, DAL/N^+-Ch-CD complex, and DAL-NP, as previously described. Afterwards, formazan dye absorbance was quantified at 450 nm with the reference wavelength of 655 by using an Enspire 230 (Perkin-Elmer, Waltham, MA, USA) multilabel reader.
# [3] = biological target: T1, α-chymotrypsin (CHT) (Bos taurus, UniProt P00766); assay: Enzymatic degradation kinetics with α-chymotrypsin; type: in vitro ADME; details: CHT 0.36 mg/mL mixed, final DAL 0.50 mg/mL, 0.4 M PB, 37 ℃, 80 rpm, HPLC, mean ± SD of three independent experiments
# T1 construct: purchased Merk (Merck/Sigma-Aldrich, St. Louis, MO, USA)
# Description: (§1) Stock 1 mg/mL solutions of DAL-NP or free DAL in filtered 0.4 M PB were used for the enzymatic digestion tests. The solutions were mixed with 0.36 mg/mL CHT or 0.18 mg/mL PAC to obtain solutions with a final DAL concentration of 0.50 mg/mL. The DAL-NP and free DAL samples were subjected to digestion in the presence of CHT or PAC at 37 ℃ in a shaker water bath (80 rpm). At pre-established intervals, samples were withdrawn, appropriately diluted with the mobile phase (4 ℃), and analyzed in triplicate for DAL by HPLC, as described previously. The analysis was repeated in triplicate.
# [4] = system: Caco-2 monolayer; assay: Permeation across Caco-2 monolayer (Transwell); type: in vitro ADME; details: Caco-2 monolayer 24 days, A-B, apical DAL 150 µg/mL, up to 3 h, HPLC, NP as FITC-labeled DAL-NP
# Description: The permeation studies were performed as described previously. Briefly, a Caco-2 monolayer was obtained by cell seeding (10^5 cells per well) on Transwell 12-well plates (pore size […], area 1.12 cm^2; Sigma-Aldrich, Saint Louis, MO, USA). Thereafter, 0.5 and 1.5 mL of culture medium were added to apical and basolateral compartments of the inserts, respectively; the culture medium was replaced every 2 days for 24 days. The transepithelial electrical resistance (TEER, Ω cm^2) measurement during the permeatstudies was carried out using a voltmeter with rod electrodes (Voltmeter Millicells-ERS, Millipore, Molsheim, France). The TEER values for the Caco-2 cell monolayer grown on the Transwell filter were ion taken at time 0, every hour for 3 h, and at 24 h.
# Both the NP vehicle and the DAL were followed in the mucosal and basolateral phases. […] The withdrawn samples were kept in ice and analyzed by HPLC. The evaluation of DAL contained in NP-FITC by HPLC implied subtracting the contribution of the fluorescein-labeled polymer from the peptide peak area. Therefore, with each sample to be analyzed, a specific fluorescence intensity was recorded by a spectrofluorometer from which the fluorescent polymer concentration to be injected in the HPLC apparatus could be extrapolated. […]
# [5] = system: pancreatin (PAC); assay: Enzymatic degradation kinetics with pancreatin; type: in vitro ADME; details: PAC 0.18 mg/mL mixed, final DAL 0.50 mg/mL, 0.4 M PB, 37 ℃, HPLC
# Description: as §1
# [6] = system: bEnd.3 monolayer; assay: Permeation across bEnd.3 monolayer (Transwell, BBB model); type: in vitro ADME, murine
# Description: The medium was changed every 2 days.
Structure (SMILES),"Papp, NaF 50 μg/mL [1]","Papp, NaF 100 μg/mL [1]",viability [2] [%],reduction of substrate (DAL) after 5 min with CHT [3] [%],"DAL presence in basolateral chamber, Caco-2 [4]","reduction of initial DAL content 2 min after adding PAC ([5]; 80 rpm, 2 min, three independent experiments) [%]",DAL present after 5 min with PAC ([5]; 5 min),"TEER of bEnd.3 monolayer during permeation experiment ([6]; 100% corresponds to 180 Ω cm^2, initial apical DAL 25 µg/mL, 3 h) [%]","DAL presence in basolateral chamber, bEnd.3 ([6]; bEnd.3 monolayer 10 days, Transwell, A-B, apical DAL 25 µg/mL, up to 3 h, HPLC, NP as FITC-labeled DAL-NP)"
"O=C1OC2(c3ccc(O)cc3Oc3cc(O)ccc32)c2ccccc21 [NaF, Sodium fluorescein]",0.51 10-6 cm/sec,0.52 10-6 cm/sec,–,–,–,–,–,–,–
"CC(C)C[C@H](NC(=O)[C@H](Cc1ccccc1)NC(=O)CNC(=O)[C@@H](C)NC(=O)[C@@H](N)Cc1ccc(O)cc1)C(=O)N[C@@H](CCCNC(=N)N)C(=O)O [DAL, (D-Ala2)-Leu Enkephalin-Arg] (H-Y[dA]GFLR-OH)",–,–,> 70,90 ± 0.41,could never be evidenced,85 ± 1.39,no peptide was present,100,below the analytical limit
